Data taken from ChEMBL document CHEMBL4665776, “Design, synthesis and SAR study of novel C2-pyrazolopyrimidine amides and amide isosteres as allosteric integrase inhibitors” (Bioorg Med Chem Lett, 2020).

Tests used:
[1] = system: Human immunodeficiency virus 1; assay: Antiviral activity against wild type HIV-1 NL4-3 in human MT2 cells assessed as inhibition of viral out growth replication in presence of 40 mg/ml human serum albumin by HIV1 infectivity assay; format: functional, organism-based; conditions: Human immunodeficiency virus 1, NL4-3, MT2
[2] = Cytotoxicity against human MT2 cells; format: cell-based
[3] = Displacement of [3H]2-tert-butoxy-2-(2-methyl-4-p-tolylquinolin-3-yl)acetic acid from LEDGF binding site of HIV1 integrase; design: species or system Human immunodeficiency virus 1
[4] = system: Human immunodeficiency virus 1; assay: Antiviral activity against wild type HIV-1 NL4-3 in human MT2 cells assessed as inhibition of viral out growth replication by HIV1 infectivity assay; format: functional, organism-based; conditions: Human immunodeficiency virus 1, NL4-3, MT2
[5] = system: Human immunodeficiency virus 1; assay: Antiviral activity against HIV-1 NL4-3 harboring integrase A128T mutant in human MT2 cells assessed as inhibition of viral out growth replication by HIV1 infectivity assay; format: functional, organism-based; conditions: Human immunodeficiency virus 1, NL4-3, MT2
[6] = Metabolic stability in rat liver microsomes assessed as parent compound remaining at 0.5 uM incubated for 10 mins; format: ADME, Microsome; conditions: read-out: Stabilty
[7] = Volume of distribution at steady state in Sprague-Dawley rat at 1 mg/kg, iv; format: ADME, organism-based; conditions: in vivo, read-out: Vdss
[8] = Clearance in Sprague-Dawley rat at 1 mg/kg, iv; format: ADME, organism-based; conditions: in vivo
[9] = Half life in Sprague-Dawley rat at 1 mg/kg, iv; format: ADME, organism-based; conditions: in vivo
[10] = Cmax in Sprague-Dawley rat at 1 mg/kg, iv; format: ADME, organism-based; design: route intravenous, dose 1 mg/kg; conditions: in vivo

SMILES | EC50 [1] | CC50 [2] | IC50 [3] | EC50 [4] | EC50 [5] | remaining at 10 min, 0.5 µM [6] | Vd [7] | clearance [8] | half-life [9] | Cmax [10]
Cc1nc2cc(C(=O)NCCC3CCCCC3)nn2c(-c2cc(F)c3c(c2C)CCCO3)c1[C@H](OC(C)(C)C)C(=O)O | 143 nM | > 40000 nM | 63 nM | 60 nM |  |  |  |  |  | 
Cc1nc2cc(C(=O)NCCC3CCOCC3)nn2c(-c2cc(F)c3c(c2C)CCCO3)c1[C@H](OC(C)(C)C)C(=O)O | 1770 nM | > 40000 nM | 95 nM | 173 nM |  |  |  |  |  | 
CCCc1cc(CNC(=O)c2cc3nc(C)c([C@H](OC(C)(C)C)C(=O)O)c(-c4cc(F)c5c(c4C)CCCO5)n3n2)ccc1F | 247 nM | > 20000 nM | 108 nM | 12 nM |  |  |  |  |  | 
Cc1nc2cc(-c3ncc(Cc4ccc(F)cc4)o3)nn2c(-c2cc(F)c3c(c2C)CCCO3)c1[C@H](OC(C)(C)C)C(=O)O | 324 nM | > 20000 nM | 21 nM | 6 nM | 56 nM |  |  |  |  | 
Cc1nc2cc(C(=O)NCc3ccc(F)cc3)nn2c(-c2cc(F)c3c(c2C)CCCO3)c1[C@H](OC(C)(C)C)C(=O)O | 591 nM | > 40000 nM | 44 nM | 50 nM |  |  |  |  |  | 
Cc1nc2cc(C(=O)NCc3ccc(F)cc3O)nn2c(-c2cc(F)c3c(c2C)CCCO3)c1[C@H](OC(C)(C)C)C(=O)O | 1520 nM | > 40000 nM | 67 nM | 37 nM |  |  |  |  |  | 
CNC(=O)c1cc(F)ccc1CNC(=O)c1cc2nc(C)c([C@H](OC(C)(C)C)C(=O)O)c(-c3cc(F)c4c(c3C)CCCO4)n2n1 | > 20000 nM | > 40000 nM | 42 nM | 3200 nM |  |  |  |  |  | 
CCCNC(=O)c1cc2nc(C)c([C@H](OC(C)(C)C)C(=O)O)c(-c3cc(F)c4c(c3C)CCCO4)n2n1 | 2340 nM | > 40000 nM | 1120 nM | 262 nM |  |  |  |  |  | 
Cc1nc2cc(C(=O)NCC3CCOCC3)nn2c(-c2cc(F)c3c(c2C)CCCO3)c1[C@H](OC(C)(C)C)C(=O)O | 2660 nM | > 40000 nM | 420 nM | 608 nM |  |  |  |  |  | 
Cc1nc2cc(-c3ncc(Cc4ccc(F)cc4)s3)nn2c(-c2cc(F)c3c(c2C)CCCO3)c1[C@H](OC(C)(C)C)C(=O)O | 34 nM | > 20000 nM | 15 nM | 1 nM | 59 nM | 100% | 3.3 L/kg | 53 mL/min/kg | 90 min | 343 nM
Cc1nc2cc(C(=O)NCCC(C)C)nn2c(-c2cc(F)c3c(c2C)CCCO3)c1[C@H](OC(C)(C)C)C(=O)O | 122 nM | > 40000 nM | 120 nM | 18 nM |  |  |  |  |  | 
Cc1nc2cc(-c3ncc(-c4ccc(F)cc4)s3)nn2c(-c2cc(F)c3c(c2C)CCCO3)c1[C@H](OC(C)(C)C)C(=O)O | 296 nM | > 20000 nM | 195 nM | 10 nM |  |  |  |  |  | 
Cc1nc2cc(C(=O)NCc3ccc(F)cc3N3CCCC3=O)nn2c(-c2cc(F)c3c(c2C)CCCO3)c1[C@H](OC(C)(C)C)C(=O)O | 9470 nM | > 40000 nM | 65 nM | 2600 nM |  |  |  |  |  | 
COc1cc(F)ccc1CNC(=O)c1cc2nc(C)c([C@H](OC(C)(C)C)C(=O)O)c(-c3cc(F)c4c(c3C)CCCO4)n2n1 | 347 nM | > 40000 nM | 21 nM | 53 nM |  |  |  |  |  | 
Cc1nc2cc(C(=O)NCC3CCCCC3)nn2c(-c2cc(F)c3c(c2C)CCCO3)c1[C@H](OC(C)(C)C)C(=O)O | 342 nM | > 40000 nM |  | 12 nM |  |  |  |  |  | 
Cc1nc2cc(-c3nc(Cc4ccc(F)cc4)no3)nn2c(-c2cc(F)c3c(c2C)CCCO3)c1[C@H](OC(C)(C)C)C(=O)O | 2530 nM | > 20000 nM | 117 nM | 28 nM |  |  |  |  |  | 
Cc1nc2cc(C(=O)NCCC(C)(C)C)nn2c(-c2cc(F)c3c(c2C)CCCO3)c1[C@H](OC(C)(C)C)C(=O)O | 105 nM | > 40000 nM | 84 nM | 13 nM | 75 nM | 86% | 0.6 L/kg | 47 mL/min/kg | 42 min | 79 nM
Cc1nc2cc(C(=O)NCCN3CCOCC3)nn2c(-c2cc(F)c3c(c2C)CCCO3)c1[C@H](OC(C)(C)C)C(=O)O | 11700 nM | > 40000 nM | 815 nM | 5920 nM |  |  |  |  |  | 
COc1cc(CNC(=O)c2cc3nc(C)c([C@H](OC(C)(C)C)C(=O)O)c(-c4cc(F)c5c(c4C)CCCO5)n3n2)ccc1F | 340 nM | > 20000 nM |  | 20 nM |  |  |  |  |  | 
Cc1nc2cc(C(=O)NCc3ccc(F)cc3S(C)(=O)=O)nn2c(-c2cc(F)c3c(c2C)CCCO3)c1[C@H](OC(C)(C)C)C(=O)O | 6570 nM | > 40000 nM | 69 nM | 118 nM |  |  |  |  |  | 
CCc1cc(CNC(=O)c2cc3nc(C)c([C@H](OC(C)(C)C)C(=O)O)c(-c4cc(F)c5c(c4C)CCCO5)n3n2)ccc1F | 325 nM | > 40000 nM | 48 nM | 15 nM |  |  |  |  |  | 
Cc1nc2cc(C(=O)NCc3ccc(F)c(C4CC4)c3)nn2c(-c2cc(F)c3c(c2C)CCCO3)c1[C@H](OC(C)(C)C)C(=O)O | 361 nM | > 40000 nM | 65 nM | 14 nM |  |  |  |  |  | 
Cc1cc(CNC(=O)c2cc3nc(C)c([C@H](OC(C)(C)C)C(=O)O)c(-c4cc(F)c5c(c4C)CCCO5)n3n2)ccc1F | 236 nM | > 40000 nM | 42 nM | 15 nM | 35 nM | 96% | 0.6 L/kg | 58 mL/min/kg | 24 min | 7 nM
Cc1nc2cc(C(=O)NCc3ccc(F)cc3-n3cncn3)nn2c(-c2cc(F)c3c(c2C)CCCO3)c1[C@H](OC(C)(C)C)C(=O)O | 2600 nM | > 40000 nM | 21 nM | 508 nM |  |  |  |  |  | 
